#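 In this assay, cells in 96-well plates receive the compound at five concentrations for 48 hours. Endpoints are linearly interpolated between the surrounding concentrations. Abbreviation: GI50, concentration required for 50% inhibition of growth. Definition used: TGI = concentration required for complete inhibition of growth.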
# What was measured:
# Assay in all cases: inhibition of tumour cell growth, NCI panel, 48 h
# [1] = tested on: UACC-62 melanoma
# [2] = tested on: SF-295 CNS
# [3] = tested on: LOX IMVI melanoma
# [4] = tested on: CCRF-CEM leukemia
# [5] = tested on: HCC-2998 colon
# [6] = tested on: U251 CNS
# [7] = tested on: HS 578T breast
SMILES,TGI [1] [µM],TGI [2] [µM],TGI [3] [µM],TGI [4] [µM],TGI [5] [µM],GI50 [1] [µM],GI50 [2] [µM],GI50 [3] [µM],GI50 [4] [µM],GI50 [6] [µM],TGI [6] [µM],GI50 [5] [µM],GI50 [7] [µM],TGI [7] [µM]
Cn1c2ccccc2c(=O)c2ccc(Cl)cc21,> 10,> 10,> 10,> 10,> 10,,,,,,,,,
Cc1ccc2[nH]c(O)c(N=Nc3ccc(S(N)(=O)=O)cc3)c2c1,> 25,> 25,> 25,> 25,> 25,> 23.7,> 14.9,13.1,15.6,12.8,> 25,14.8,8.24,> 25
O=C1CSC(c2ccc(Cl)cc2Cl)N1c1ccc(F)cc1 (stereo not given),30.5,37.2,34,19,31.5,16.2,18.3,18.2,2.19,17.8,31.7,17.6,16.8,39.9
CC1=C(C(=O)Nc2ccc(F)c(Cl)c2)C(c2cccc(O)c2)NC(=O)N1 (stereo not given),> 100,> 100,> 100,> 100,> 100,48.7,> 100,> 100,79.3,> 100,> 100,> 100,26.9,> 100
C#Cc1c(I)n(C2OC(CO[Si](C)(C)C(C)(C)C)C3OC(C)(C)OC32)c(=O)[nH]c1=O (stereo not given),33.7,98.7,18.5,11.9,6.38,17.9,28.4,3.42,4,19.5,65.8,2.36,19.7,66.8
CC(=O)N[C@H]1CSSC[C@@H](C(N)=O)NC(=O)[C@H](C(C)C)NC(=O)[C@H](C)NC(=O)[C@H](Cc2cnc[nH]2)NC1=O,> 100,> 100,> 100,> 100,> 100,> 100,> 100,> 100,29.1,> 100,> 100,> 100,,
O=C(/C=C\c1ccc(NCc2ccc(C(=O)O)cc2)cc1)CCl,,34.3,5.12,7.03,,,17.5,2.17,2.62,13.9,27,,15.7,45.6
ClCc1cccc(Cn2cnc3nc(Cl)nc(Cl)c32)c1,2.22,3.78,,0.973,2.9,1.02,2.02,,0.31,1.1,2.38,1.52,0.43,2.51
CC(C)(C[C@H]1CN(S(=O)(=O)c2cccc(C(F)(F)F)c2)c2cc(-c3cc(F)cc(OC(F)F)c3)ccc2O1)C(=O)O,,18.5,22.5,24.7,24.4,,4.12,6.54,4.72,4.51,17.1,10.1,4.47,27.8
COc1cc(NC(C)CCCN)c2nccc(C)c2c1 (stereo not given),35.8,35.4,,,38.7,,,,,,56.8,,,64.3
O=C1NC(=O)C(CC2CCCCCCCCCCC2=O)C(=O)N1 (stereo not given),> 100,> 100,> 100,> 100,> 100,,,,,,> 100,,,> 100
COc1cc(C(=O)c2cc(C)c3[nH]c4ccc(C)cc4c3c2C)cc(OC)c1OC,> 100,,> 100,> 100,> 100,< 0.01,< 0.01,< 0.01,< 0.01,< 0.01,> 27.1,< 0.01,< 0.01,> 100
CCSc1nc(SCC)c2cn[nH]c2n1,92.7,> 100,> 100,> 100,> 100,25.6,> 100,57.1,41.5,65.7,> 100,35.6,10.7,48.6
CCOc1cc(C(C)(C)C)ccc1C1=N[C@@](C)(c2ccc(Cl)cc2)[C@@](C)(c2ccc(Cl)cc2)N1C(=O)N1CCN(CCCS(C)(=O)=O)CC1,6.41,15.2,11,> 100,6.95,0.708,4.13,0.438,4.1,12.2,45.9,2.51,9.26,35.2
O=C1Nc2ccc(F)cc2/C1=C/c1ccc[nH]1,> 25,> 25,> 25,,> 25,> 25,> 25,24.2,,> 25,> 25,> 22.1,> 25,> 25
C[C@]12CC[C@@H]3c4cc(OCC(F)(F)F)c(O)cc4/C(=N/O)C[C@H]3[C@@H]1CC[C@@H]2O,17.7,1.95,14.8,< 0.0292,11.4,0.0243,0.0611,0.048,,,1.07,,,
CC(CO)(CO)NCCCCn1ccc2c1C(=O)c1c(c(O)c3ccccc3c1O)C2=O,,26.6,,,20.9,,11.2,,,,,6.2,30.3,73.4
CCn1c(-c2ccc(OC(C)=O)cc2)c(C)c2cc(OC(C)=O)ccc21,28.3,96.7,30.6,53.9,,,,,,,26.2,,,54.4
CCCCCCCCCCCCCCCCCCOc1ccccc1CC(=O)OCC[N+]1(C)CCCC1,3.33,8.8,3.36,,,1.63,2.83,1.8,,,,,2.41,7.01
COc1c(CCl)cc(-c2cc(=O)c3ccccc3s2)cc1CCl,> 100,36.1,,,,,,,,,> 59.8,,,59.6

# Source: PubChem BioAssay (NCI)
